Test results taken from patent publication US7129351B2, “Pyrimido compounds having antiproliferative activity” (Hoffmann-La Roche Inc., priority 2002, dated 2006).
Where two headings read alike, the source gives them in different places.

Key:
Src (p60^c-src) = target: T1, Src (p60^c-src) (Homo sapiens, UniProt P12931); assay: SRC-Inhibitor-Assay (homogenous time-resolved fluorescence kinase assay); format: biochemical
T1 construct: purchased Upstate (UBI)
Procedure: The activity of the compounds according to this invention as inhibitors for the src-family tyrosine kinases was shown by using the following assay.
SRC-Inhibitor-Assay Parameters:
whereby both peptides were synthesized by an optimized solid phase peptide synthesis protocol (Merrifield (1962) Fed. Proc. Fed. Amer. Soc Exp. Biol. 21, 412) on an Zinsser SMP350 peptide synthesizer. Shortly, the peptide was assembled on 160 mg (22.8 μmol scale) of a Rink-Linker modified polystyrene solid phase by repeatedly conjugating a twenty fold excess of aminoacids each protected by temporary piperidine labile Fmoc- and permanent acid labile tert-Bu-, BOC- and O-tert-Bu-groups depending on the side chain function. The substrate sequence AEEEIYGEFEAKKKK was N-terminal additionally mounted with the spacer amino acids Aminocaprylic acid and Glycin. After cleavage of the N-terminal temporary protecting group the still attached and protected peptide was labeled with a 1.5 fold amount of LightCycler-Red 640-N-hydroxy succinimide ester (purchased from Roche Diagnostics GmbH) and triethylamine. After 3 hrs. the resin was washed with dimethylformamide and isopropanol until the eluates of the blue resin got colourless. […] The substrate was finally isolated by a preparative reverse phase HPLC purification. The purification yielded 12.2 mg RP-HPLC single peak pure blue material (lyophilisate). The identity was proven by MALDI mass spectroscopy [2720.0]. • Enzymes: Upstate Lck (p56^lck, active), Upstate Src (p60^c-src, partially purified) were purchased from UBI. • Homogenous, time-resolved Fluorescence Assay: Reader: Perkin Elmer, Wallac Viktor 1420-040 multilabel counter; Liquid handling system: Beckman Coulter, Biomek 2000. • ATP, Tween 20, HEPES were purchased from Roche Molecular Biochemicals, MgCl2 and MnCl2 were purchased from Merck Eurolab, TCEP was purchased from Pierce, 384 Well low volume fluorescence plates was purchased from Falcon. Assay Description:
At first the enzyme is pre-incubated for 15 min. at 15° C. in aqueous solution with corresponding amounts of inhibitors according to this invention. Then the phosphorylation reaction is started by adding a reaction mixture, containing ATP, Peptide and PT66, and subsequent shaking. The proceeding of this reaction is immediately monitored using time resolved fluorescence spectroscopy in a suitable well plate reader.
The IC50-values can be obtained from the reaction rates by using a non-linear curve fit (Excelfit).

[1] = ATP 5 μM, enzyme 2.5 U/mL, pre-incubated 15 min at 15° C., read-out: IC50 (μM) - Enzyme Inhibition Assay, Src

T1 sequence (P12931 whole entry): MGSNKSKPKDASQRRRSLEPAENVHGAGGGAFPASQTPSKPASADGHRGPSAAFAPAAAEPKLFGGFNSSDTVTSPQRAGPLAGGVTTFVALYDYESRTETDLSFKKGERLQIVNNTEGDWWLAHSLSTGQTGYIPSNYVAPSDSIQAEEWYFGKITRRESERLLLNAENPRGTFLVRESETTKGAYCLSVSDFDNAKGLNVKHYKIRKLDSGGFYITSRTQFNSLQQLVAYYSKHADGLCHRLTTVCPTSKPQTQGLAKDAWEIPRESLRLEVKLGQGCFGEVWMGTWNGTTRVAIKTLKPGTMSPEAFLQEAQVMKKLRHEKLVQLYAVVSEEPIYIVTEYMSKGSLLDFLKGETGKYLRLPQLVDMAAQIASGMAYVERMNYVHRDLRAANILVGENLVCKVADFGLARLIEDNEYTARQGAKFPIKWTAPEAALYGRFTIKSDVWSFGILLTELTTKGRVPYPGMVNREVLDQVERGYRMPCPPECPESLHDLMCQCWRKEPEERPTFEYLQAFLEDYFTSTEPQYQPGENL

| melting point | IC50 (Src (p60^c-src); [1]) | IC50 (Src (p60^c-src); printed at the end of the Example 8 characterisation data, kinase not named at that place, read-out: IC50) | Compound |
| --- | --- | --- | --- |
| 195 to 200 °C | < 1 µM | – | COc1ccc(N2C(=O)N(c3cccc(C#N)c3)c3nc(Nc4cccc(CCO)c4)ncc3C2C)cc1 (racemic) [Example 4, (±)-3-[7-[3-(2-hydroxy-ethyl)-phenylamino]-3-(4-methoxy-phenyl)-4-methyl-2-oxo-3,4-dihydro-2H-pyrimido[4,5-d]pyrimidin-1-yl]-benzonitrile] |
| 128 to 145 °C | < 1 µM | – | CCN(CC)CCc1cccc(Nc2ncc3c(n2)N(c2cccc(C#N)c2)C(=O)N(c2ccc(OC)cc2)C3C)c1 (racemic) [Example 5b, (±)-3-[7-[3-(2-diethylamino-ethyl)-phenylamino]-3-(4-methoxy-phenyl)-4-methyl-2-oxo-3,4-dihydro-2H-pyrimido[4,5-d]pyrimidin-1-yl]-benzonitrile] |
| 120 to 135 °C | < 1 µM | – | COc1ccc(N2C(=O)N(c3cccc(C#N)c3)c3nc(Nc4cccc(CCN(C)C)c4)ncc3C2C)cc1 (racemic) [Example 6, (±)-3-[7-[3-(2-dimethylamino-ethyl)-phenylamino]-3-(4-methoxy-phenyl)-4-methyl-2-oxo-3,4-dihydro-2H-pyrimido[4,5-d]pyrimidin-1-yl]-benzonitrile] |
| 134 to 155 °C | < 1 µM | – | COc1ccc(N2C(=O)N(c3cccc(C#N)c3)c3nc(Nc4cccc(CCN5CCN(C)CC5)c4)ncc3C2C)cc1 (racemic) [Example 7, (±)-3-(3-(4-methoxy-phenyl)-4-methyl-7-{3-[2-(4-methyl-piperazin-1-yl)-ethyl]-phenylamino}-2-oxo-3,4-dihydro-2H-pyrimido[4,5-d]pyrimidin-1-yl)-benzonitrile] |
| 170 to 175 °C | < 1 µM | 0.0045 µM | CCN(CC)CCc1cccc(Nc2ncc3c(n2)N(c2cccc(C(N)=O)c2)C(=O)N(c2ccc(OC)cc2)C3C)c1 (racemic) [Example 8, (±)-3-[7-[3-(2-diethylamino-ethyl)-phenylamino]-3-(4-methoxy-phenyl)-4-methyl-2-oxo-3,4-dihydro-2H-pyrimido[4,5-d]pyrimidin-1-yl]-benzamide] |
| 215 to 230 °C | < 1 µM | – | COc1ccc(N2C(=O)N(c3cccc(C(N)=O)c3)c3nc(Nc4cccc(CCN(C)C)c4)ncc3C2C)cc1 (racemic) [Example 9, (±)-3-[7-[3-(2-dimethylamino-ethyl)-phenylamino]-3-(4-methoxy-phenyl)-4-methyl-2-oxo-3,4-dihydro-2H-pyrimido[4,5-d]pyrimidin-1-yl]-benzamide] |
| 243 to 251 °C | < 1 µM | – | COc1ccc(N2C(=O)N(c3cccc(C(N)=O)c3)c3nc(Nc4cccc(CCN5CCN(C)CC5)c4)ncc3C2C)cc1 (racemic) [Example 10, (±)-3-(3-(4-methoxy-phenyl)-4-methyl-7-{3-[2-(4-methyl-piperazin-1-yl)-ethyl]-phenylamino}-2-oxo-3,4-dihydro-2H-pyrimido[4,5-d]pyrimidin-1-yl)-benzamide] |
